Test results: US4771057A, “Reduced pyridyl derivatives with cardiovascular regulating properties” (University of Alberta, priority 1986, dated 1988)
Like-named read-outs stand apart in the source and are kept apart here.

Target: guinea pig ileal longitudinal smooth muscle
Test: Calcium channel antagonist testing: inhibition of muscarinic receptor-mediated Ca2+-dependent contraction (response to CD) of guinea pig ileal longitudinal smooth muscle
Type: cell-based
Settings: for IC50: 50% inhibition of tonic contraction to CD 5×10^-7 M, compound added 10 min before CD, 37° C., pH 7.4, read-out: Calcium channel antagonist act., inhib. act. on contractile response to CD, ID50; for calcium channel antagonist activity, comparison to Nifedipine (TM): conclusion from Table 7
Procedure: Male albino guinea pigs (body weight 300-450 g) were sacrificed by decapitation. The intestine was removed above the ileo-caecal junction. Longitudinal smooth muscle segments of 2 cm length were mounted under a resting tension of 300-400 mg. […] The muscles were equilibrated for 1 h with a solution change every 15 min. Two successive control contractions were elicited at 15 min intervals with 5×10^-7 M cis-2-methyl- 4-dimethylaminomethyl-1,3-dioxolane methiodide (CD). The isometric contractions were recorded with a force displacement transducer (FT 03C) on a GRASS physiograph. The means of the two contractile responses was taken as the 100% value for the tonic (slow) component of the response. The muscle was washed with Hepes saline solution and was allowed to re-equilibrate. The calcium antagonist (test compound) was added ten min before the dose-response for CD was determined. The drug-induced inhibition of contraction was expressed as percent of control. The ID50 values were graphically determined from the concentration-response curves.

Compound | IC50 | IC50 (Cavia porcellus) | calcium channel antagonist activity, comparison to Nifedipine (TM)
CC1=C(C(=O)OC(C)C)C(c2ccncc2)C(C(=O)OC(C)C)=C(C)N1 [Compound D-22, 3,5-Diisopropyl 2,6-dimethyl-4-(4'-pyridyl)-1,4-dihydropyridine-3,5-dicarboxylate] |  | 0.231 µM | active calcium channel antagonists, being comparable to Nifedipine (TM)
COC(=O)C1=C(C)NC(C)=C(C(=O)OC)C1c1ccncc1 [Compound D-9, 3,5-Dimethyl 2,6-dimethyl-4-(4'-pyridyl)-1,4-dihydropyridine-3,5-dicarboxylate] |  | 5 µM | 
CCOC(=O)C1=C(C)NC(C)=C(C(=O)OCC)C1C1CC=CCN1C [Compound D-65, Diethyl 2,6-dimethyl-4-[2'-(N--methyl-1',2',3',6'-tetrahydropyridyl)]-1,4-dihydropyridine-3,5-dicarboxylate] |  | 13 µM | 
CC1=C(C(=O)OCC(C)C)C(c2ccccn2)C(C(=O)OCC(C)C)=C(C)N1 [Compound D-15, 3,5-Diisobutyl 2,6-dimethyl-4-(2'-pyridyl)-1,4-dihydropyridine-3,5-dicarboxylate] |  | 0.0936 µM | active calcium channel antagonists, being comparable to Nifedipine (TM)
COC(=O)C1=C(C)NC(C)=C(C(=O)OC)C1c1cccnc1 [Compound D-5, 3,5-Dimethyl 2,6-dimethyl-4-(3'-pyridyl)-1,4-dihydropyridine-3,5-dicarboxylate] |  | 3.83 µM | 
COC(=O)C1=C(C)NC(C)=C(C(=O)OCCN(C)C)C1c1ccccn1 [Compound D-4, 3-[2-(N,N--dimethylamino)ethyl]-5-methyl 2,6-dimethyl-4-(2'-pyridyl)-1,4-dihydropyridine-3,5-dicarboxylate] |  | 43.6 µM | 
COC(=O)N1C=CC(C2C(C#N)=C(C)NC(C)=C2C#N)=CC1 [Compound D-59, 3,5-Dicyano-2,6-dimethyl-4-[4'-(N--methoxycarbonyl)]-1,4-dihydropyridine] |  | 67.5 µM | 
COC(=O)C1=C(C)NC(C)=C(C(=O)OCCN(C)C)C1c1ccncc1 [Compound D-12, 3-[2-(N,N--dimethylamino)ethyl] -5-methyl 2,6-dimethyl-4-(4'-pyridyl)-1,4-dihydropyridine-3,5-dicarboxylate] |  | 51.3 µM | 
COC(=O)C1=C(C)NC(C)=C(C(=O)OCC(C)C)C1c1ccccn1 [Compound D-3, 3-Isobutyl-5-methyl 2,6-dimethyl-4-(2'-pyridyl)-1,4-dihydropyridine-3,5-dicarboxylate] |  | 0.041 µM | active calcium channel antagonists, being comparable to Nifedipine (TM)
CC1=C(C(=O)OCCN(C)C)C(c2cccnc2)C(C(=O)OCCN(C)C)=C(C)N1 [Compound D-20, 3,5-Bis-[2-(N,N--dimethylamino)ethyl]2,6-dimethyl-4-(3'pyridyl)-1,4-dihydropyridine-3,5-dicarboxylate] |  | 179 µM | 
CC1=C(C(=O)OC(C)C)C(c2ccccn2)C(C(=O)OC(C)C)=C(C)N1 [Compound D-14, 3,5-Diisopropyl 2,6-dimethyl-4-(2'-pyridyl)-1,4-dihydropyridine-3,5-dicarboxylate] |  | 0.125 µM | active calcium channel antagonists, being comparable to Nifedipine (TM)
COC(=O)C1=C(C)NC(C)=C(C(=O)OC)C1C1CC=CCN1C [Compound D-64] |  | 64.7 µM | 
CC1=C(C#N)C(c2ccncc2)C(C#N)=C(C)N1 [Compound D-28, 3,5-dicyano-2,6-dimethyl-4-(4'-pyridyl)-1,4-dihydropyridine] |  | 130 µM | 
CCOC(=O)C1=C(C)NC(C)=C(C(=O)OCC)C1c1cccnc1 [Compound D-17, 3,5-Diethyl 2,6-dimethyl-4-(3'-pyridyl)-1,4-dihydropyridine-3,5-dicarboxylate] |  | 0.346 µM | active calcium channel antagonists, being comparable to Nifedipine (TM)
COC(=O)C1=C(C)NC(C)=C(C(=O)OC(C)C)C1c1ccncc1 [Compound D-10, 3-Isopropyl-5-methyl 2,6-dimethyl-4-(4'-pyridyl)-1,4-dihydropyridine-3,5-dicarboxylate] |  | 0.56 µM | active calcium channel antagonists, being comparable to Nifedipine (TM)
COC(=O)C1=C(C)NC(C)=C(C(=O)OC(C)C)C1c1ccccn1 [Compound D-2, 3-Isopropyl-5-methyl 2,6-dimethyl-4-(2'-pyridyl)-1,4-dihydropyridine-3,5-dicarboxylate] |  | 0.0956 µM | active calcium channel antagonists, being comparable to Nifedipine (TM)

Second part, led by results:

IC50 | IC50 (Cavia porcellus) | Compound | calcium channel antagonist activity, comparison to Nifedipine (TM)
0.131 µM |  | Diisopropyl 2,6-dimethyl-4-{3'-[N--methoxycarbonyl-1',2'-(1',6'-)dihydropyridyl]}-1,4-dihydropyridine-3,5-dicarboxylate [Compound D-34] | active calcium channel antagonists, being comparable to Nifedipine (TM)
 | 10.5 µM | COC(=O)C1=C(C)N(C)C(C)C(C(=O)OC(C)C)=C1c1ccccc1[N+](=O)[O-] (stereo not drawn) [Compound W-3, 3-Isopropyl-5-methyl 1,2,6-trimethyl-4-(2-nitrophenyl)-1,2-dihydropyridine-3,5-dicarboxylate] | 
 | 2.15 µM | COC(=O)C1=C(C)N(C)C(C)C(C(=O)OC)=C1c1ccccc1 (stereo not drawn) [Compound S-1, Dimethyl 1,2,6-trimethyl-4-phenyl-1,2-dihydropyridine-3,5-dicarboxylate] | 
 | 7.9 µM | COC(=O)C1=C(C)N(C)C(C)C(C(=O)OC)=C1c1cccc([N+](=O)[O-])c1 (stereo not drawn) [Compound S-5, Dimethyl 1,2,6-trimethyl-4-(3-nitrophenyl)-1,2-dihydropyridine-3,5-dicarboxylate] | 
3.7 µM |  | Dimethyl 2,6-dimethyl-4-{3'-[N--phenoxycarbonyl-1',2'-(1',6'-)dihydropyridyl]}-1,4-dihydropyridine-3,5-dicarboxylate [Compound D-36] | 
 | 4.96 µM | CCOC(=O)C1=C(C)NC(C)=C(C(=O)OCC)C1C1=CCN(C)CC1 [Compound D-67, Diethyl 2,6-dimethyl-4-[4'-(N--methyl-1',2',3',6'-tetrahydropyridyl)]-1,4-dihydropyridine-3,5-dicarboxylate] | 
 | 3.43 µM | COC(=O)C1=C(C)NC(C)=C(C(=O)OC)C1C1=CCCN(C)C1 [Compound D-68, Dimethyl 2,6-dimethyl-4-[5'-(N--methyl-1',2',3',6'-tetrahydropyridyl)]-1,4-dihydropyridine-3,5-dicarboxylate] | 
 | 8.92 µM | COC(=O)C1=C(C)N(C)C(C)C(C(=O)OC)=C1c1ccc(C(F)(F)F)cc1 (stereo not drawn) [Compound W-1, Dimethyl 1,2,6-trimethyl-4-(4-trifluoromethylphenyl)-1,2-dihydropyridine-3,5-dicarboxylate] | 
0.771 µM |  | Diisobutyl 2,6-dimethyl-4-{3'-[N--methoxycarbonyl-1',2'(1',6'-)dihydropyridyl]}-1,4-dihydropyridine-3,5-dicarboxylate [Compound D-35] | active calcium channel antagonists, being comparable to Nifedipine (TM)
0.18 µM |  | Diethyl 2,6-dimethyl-4-{3'-[N--methoxycarbonyl-1',2'-(1',6'-)dihydropyridyl]}-1,4-dihydropyridine-3,5-dicarboxylate [Compound D-33] | active calcium channel antagonists, being comparable to Nifedipine (TM)
